Earlier results as cited in PubChem BioAssay AID1259409 (Chemical Carcinogenesis Research Information System (CCRIS), 2018).
Several values for one entry are separate records, joined by “and”; a condition that tells them apart may be missing. Identical values can stand only once.

Test system: rodent chemically induced tumor inhibition, incidence and multiplicity
Experiment: CCRIS tumor inhibitor studies

NCCCC(N)(C(=O)O)C(F)F (centres undefined)
tumour outcome (control, treated, inhibition, significance) (Carcinogen: DIETHYLNITROSAMINE, 55-18-5, Dose [Inhibitor]: 0, 600 MG/KG BW BY INTRAPERITONEAL INJECTION ON DAYS 13, 14 AND 15 OF AGE THEN 4 G/KG DIET FROM 21 TO 161 DAYS OF AGE (S, Route [Inhibitor]: INTRAPERITONEAL, ORAL, Species: MOUSE, Strain/Sex: C3H/MALE, Target Tissue: Type of Lesion: LIVER: ADENOMA, Dose [Carcinogen]: 4 MG/KG IN TRICAPRYLIN ONCE ON DAY 15 OF AGE, Promoter: NONE USED): 100%, 100%, 0%, not significant
tumour outcome (control, treated, inhibition, significance) (Carcinogen: DIETHYLNITROSAMINE, 55-18-5, Dose [Inhibitor]: 0, 1600 MG/KG DIET FOR DURATION OF STUDY BEGINNING 1 WK PRIOR TO CARCINOGEN TREATMENT (STUDY DURATION: 25 WK), Route [Inhibitor]: ORAL, Species: HAMSTER, Strain/Sex: SYRIAN/MALE, Target Tissue: Type of Lesion: LUNG: CARCINOMA, Dose [Carcinogen]: 17.8 MG/KG BW 2/WK FOR 20 WK, Promoter: NONE USED): 50%, 41%, 18%, not significant
tumour outcome (control, treated, inhibition, significance) (Carcinogen: DIETHYLNITROSAMINE, 55-18-5, Dose [Inhibitor]: 0, 1600 MG/KG DIET FOR DURATION OF STUDY BEGINNING 1 WK PRIOR TO CARCINOGEN TREATMENT (STUDY DURATION: 25 WK), Route [Inhibitor]: ORAL, Species: HAMSTER, Strain/Sex: SYRIAN/MALE, Target Tissue: Type of Lesion: TRACHEA: PAPILLOMA, Dose [Carcinogen]: 17.8 MG/KG BW 2/WK FOR 20 WK, Promoter: NONE USED): 95%, 83%, 13%, not significant
tumour outcome (control, treated, inhibition, significance) (Carcinogen: DIETHYLNITROSAMINE, 55-18-5, Dose [Inhibitor]: 0, 3200 MG/KG DIET FOR DURATION OF STUDY BEGINNING 1 WK PRIOR TO CARCINOGEN TREATMENT (STUDY DURATION: 25 WK), Route [Inhibitor]: ORAL, Species: HAMSTER, Strain/Sex: SYRIAN/MALE, Target Tissue: Type of Lesion: LUNG: CARCINOMA, Dose [Carcinogen]: 17.8 MG/KG BW 2/WK FOR 20 WK, Promoter: NONE USED): 60%, 47%, 22%, not significant
tumour outcome (control, treated, inhibition, significance) (Carcinogen: DIETHYLNITROSAMINE, 55-18-5, Dose [Inhibitor]: 0, 3200 MG/KG DIET FOR DURATION OF STUDY BEGINNING 1 WK PRIOR TO CARCINOGEN TREATMENT (STUDY DURATION: 25 WK), Route [Inhibitor]: ORAL, Species: HAMSTER, Strain/Sex: SYRIAN/MALE, Target Tissue: Type of Lesion: TRACHEA: PAPILLOMA, Dose [Carcinogen]: 17.8 MG/KG BW 2/WK FOR 20 WK, Promoter: NONE USED): 100%, 95%, 5%, not significant
tumour outcome (control, treated, inhibition, significance) (Carcinogen: METHYLAZOXYMETHANOL ACETATE, 592-62-1, Dose [Inhibitor]: 0, 0.1% IN DRINKING WATER FOR 25 WK BEGINNING 15 WK POST INITIAL CARCINOGEN DOSE (STUDY DURATION: 40 WK), Route [Inhibitor]: ORAL, Species: RAT, Strain/Sex: F344/MALE, Target Tissue: Type of Lesion: LARGE INTESTINE: ADENOCARCINOMA, Dose [Carcinogen]: 20 MG/KG BW 1/WK FOR 3 WK, Promoter: 1,2-DIMETHYLHYDRAZINE, 540-73-8): 16/26 (62%), 11/28 (39%), 37%, not significant
tumour outcome (control, treated, inhibition, significance) (Carcinogen: METHYLAZOXYMETHANOL ACETATE, 592-62-1, Dose [Inhibitor]: 0, 0.1% IN DRINKING WATER FOR 25 WK BEGINNING 15 WK POST INITIAL CARCINOGEN DOSE (STUDY DURATION: 40 WK), Route [Inhibitor]: ORAL, Species: RAT, Strain/Sex: F344/MALE, Target Tissue: Type of Lesion: SMALL INTESTINE: ADENOCARCINOMA, Dose [Carcinogen]: 20 MG/KG BW 1/WK FOR 3 WK, Promoter: 1,2-DIMETHYLHYDRAZINE, 540-73-8): 8/26 (31%), 8/25 (29%), 6%, not significant
tumour outcome (control, treated, inhibition, significance) (Carcinogen: N-BUTYL-N(4-HYDROXYBUTYL)NITROSAMINE, 3817-11-6, Dose [Inhibitor]: 0, 640 MG/KG DIET FOR 6 MO BEGINNING 1 WK PRIOR TO CARCINOGEN TREATMENT (STUDY DURATION: 6 MO), Route [Inhibitor]: ORAL, Species: MOUSE, Strain/Sex: BDF/MALE, Target Tissue: Type of Lesion: URINARY BLADDER: CARCINOMA, Dose [Carcinogen]: 7.5 MG IN 0.1 ML ETHANOL:WATER (20:80) 1/WK FOR 8 WK, Promoter: NONE USED): 27/70 (39%), 21/72 (29%), 26%, not calculated
tumour outcome (control, treated, inhibition, significance) (Carcinogen: N-BUTYL-N-(4-HYDROXYBUTYL)NITROSAMINE, 3817-11-6, Dose [Inhibitor]: 0, 600 MG/KG DIET BEGINNING 1 WK PRIOR TO CARCINOGEN TREATMENT AND CONTINUING FOR DURATION OF STUDY (STUDY DURATION: 180, Route [Inhibitor]: ORAL, Species: MOUSE, Strain/Sex: BDF/MALE, Target Tissue: Type of Lesion: BLADDER: CARCINOMA, Dose [Carcinogen]: 7.5 MG IN 0.1 ML OF ETHANOL:WATER (20:80) 1/WK FOR 8 WK, Promoter: NONE USED): 25/63 (40%), 17/72 (24%), 40%, p<0.05
tumour outcome (control, treated, inhibition, significance) (Carcinogen: N-BUTYL-N-(4-HYDROXYBUTYL)NITROSAMINE, 3817-11-6, Dose [Inhibitor]: 0, 1200 MG/KG DIET BEGINNING 1 WK PRIOR TO CARCINOGEN TREATMENT AND CONTINUING FOR DURATION OF STUDY (STUDY DURATION: 18, Route [Inhibitor]: ORAL, Species: MOUSE, Strain/Sex: BDF/MALE, Target Tissue: Type of Lesion: BLADDER: CARCINOMA, Dose [Carcinogen]: 7.5 MG IN 0.1 ML OF ETHANOL:WATER (20:80) 1/WK FOR 8 WK, Promoter: NONE USED): 28/65 (43%), 14/65 (22%), 49%, p<0.01
tumour outcome (control, treated, inhibition, significance) (Carcinogen: N-BUTYL-N-(4-HYDROXYBUTYL)NITROSAMINE, 3817-11-6, Dose [Inhibitor]: 0, 1280 MG/KG DIET FOR 6 MO BEGINNING 1 WK PRIOR TO CARCINOGEN TREATMENT (STUDY DURATION: 6 MO), Route [Inhibitor]: ORAL, Species: MOUSE, Strain/Sex: BDF/MALE, Target Tissue: Type of Lesion: URINARY BLADDER: CARCINOMA, Dose [Carcinogen]: 7.5 MG IN 0.1 ML ETHANOL:WATER (20:80) 1/WK FOR 8 WK, Promoter: NONE USED): 30/73 (41%), 15/73 (21%), 49%, p<0.01
tumour outcome (control, treated, inhibition, significance) (Carcinogen: N-BUTYL-N-(4-HYDROXYBUTYL)NITROSOAMINE, 3817-11-6, Dose [Inhibitor]: 0.2% IN DRINKING WATER BEGINNING POST CARCINOGEN DOSE AND CONTINUING FOR 40 WK FOLLOWED BY TAP WATER FOR DURATION OF STU, Route [Inhibitor]: ORAL, Species: RAT, Strain/Sex: F344/MALE, Target Tissue: Type of Lesion: URINARY BLADDER: CARCINOMA, Dose [Carcinogen]: 0.05% IN DRINKING WATER FOR 6 WK, Promoter: NONE USED): 19/19 (100%), 16/18 (89%), 11%, not significant and 24/24 (100%), 23/25 (92%), 8%, not significant
tumour outcome (control, treated, inhibition, significance) (Carcinogen: N-BUTYL-N-(4-HYDROXYBUTYL)NITROSOAMINE, 3817-11-6, Dose [Inhibitor]: 0.2% IN DRINKING WATER BEGINNING POST CARCINOGEN DOSE AND CONTINUING FOR DURATION OF STUDY (STUDY DURATION: 75 WK), Route [Inhibitor]: ORAL, Species: RAT, Strain/Sex: F344/MALE, Target Tissue: Type of Lesion: URINARY BLADDER: CARCINOMA, Dose [Carcinogen]: 0.05% IN DRINKING WATER FOR 6 WK, Promoter: NONE USED): 16/25 (64%), 11/24 (46%), 28%, not significant (at 40 wk post carcinogen dose) and 19/19 (100%), 12/19 (63%), 37%, p<0.017 (at 60 wk post carcinogen dose) and 24/24 (100%), 19/20 (95%), 5%, not significant (at 75 wk post carcinogen dose)
tumour outcome (control, treated, inhibition, significance) (Carcinogen: N-ETHYL-N-NITROSOUREA, 759-73-9, Dose [Inhibitor]: 0, 250 MG/KG DIET FOR DURATION OF STUDY BEGINNING POST CARCINOGEN DOSE (STUDY DURATION: 35 WK), Route [Inhibitor]: ORAL, Species: MOUSE, Strain/Sex: PIM/MALE, Target Tissue: Type of Lesion: LYMPHATIC SYSTEM: LYMPHOMA, Dose [Carcinogen]: 50 MG/KG BW ONCE, Promoter: NONE USED): 21/40 (53%), 15/29 (52%), 2%, not significant
